This is an account of results in ChEMBL document CHEMBL1145099, “Aloisines, a new family of CDK/GSK-3 inhibitors. SAR study, crystal structure in complex with CDK2, enzyme selectivity, and cellular effects” (J Med Chem, 2003).

Assay [1] addresses Protein kinase C delta type (Homo sapiens, UniProt Q05655). The assay is described as follows: Inhibition of protein kinase C delta.
Assay [2] deals with Protein kinase C gamma type (Homo sapiens, UniProt P05129). The assay is described as follows: Inhibition of Protein kinase C gamma.
The target in assay [3] is Protein kinase C alpha type (Homo sapiens, UniProt P17252). The assay is described as follows: Inhibition of protein kinase C alpha.
Assay [4] in a line: Inhibition of cAMP dependent protein kinase, PKA.
Assay [5] addresses Cyclin-dependent kinase 2/cyclin E (Homo sapiens, UniProt P24941). The assay is described as follows: Inhibition of Cyclin-dependent kinase 2-cyclin E. It counts as protein-complex assay.
Assay [6] has as its target T1, Protein kinase C epsilon type (Homo sapiens, UniProt Q02156).
T1 sequence (Q02156 whole entry): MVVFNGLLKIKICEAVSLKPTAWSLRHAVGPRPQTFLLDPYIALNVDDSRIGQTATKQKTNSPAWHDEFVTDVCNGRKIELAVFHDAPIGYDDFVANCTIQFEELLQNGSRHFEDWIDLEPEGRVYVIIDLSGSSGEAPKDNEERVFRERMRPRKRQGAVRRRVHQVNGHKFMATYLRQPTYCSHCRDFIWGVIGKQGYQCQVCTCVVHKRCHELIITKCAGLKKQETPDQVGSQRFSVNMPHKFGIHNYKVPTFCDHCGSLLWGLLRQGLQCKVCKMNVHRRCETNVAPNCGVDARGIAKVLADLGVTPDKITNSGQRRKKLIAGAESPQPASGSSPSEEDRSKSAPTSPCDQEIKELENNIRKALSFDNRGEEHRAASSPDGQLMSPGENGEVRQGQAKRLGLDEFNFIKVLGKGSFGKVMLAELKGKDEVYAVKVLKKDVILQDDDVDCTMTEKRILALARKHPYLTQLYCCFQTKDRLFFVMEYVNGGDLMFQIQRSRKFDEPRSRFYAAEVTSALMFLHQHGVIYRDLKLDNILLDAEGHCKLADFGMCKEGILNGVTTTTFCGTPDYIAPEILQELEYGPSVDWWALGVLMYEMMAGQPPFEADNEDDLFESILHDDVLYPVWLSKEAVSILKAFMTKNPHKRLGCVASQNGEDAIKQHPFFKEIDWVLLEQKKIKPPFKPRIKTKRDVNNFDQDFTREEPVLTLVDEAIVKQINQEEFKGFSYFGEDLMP
The assay is described as follows: Inhibition of protein kinase C epsilon.

For assay [7], the target named is c-Jun N-terminal kinase, JNK (Homo sapiens, UniProt P45983+P53779+P45984). The assay is described as follows: Inhibition of c-Jun N-terminal kinase. It counts as protein assay.
Assay [8] concerns the target Serine/threonine-protein kinase pim-1 (Homo sapiens, UniProt P11309). The assay is described as follows: Inhibition of Protein kinase PIM-1.
Assay [9] deals with Cyclin-dependent kinase 2/cyclin A (Homo sapiens, UniProt P24941). The assay is described as follows: Inhibition of Cyclin-dependent kinase 2-cyclin A. It counts as protein-complex assay.
The target of assay [10] is Protein kinase C beta type (Homo sapiens, UniProt P05771). The assay is described as follows: Inhibition of Protein kinase C beta.
Sequence of Protein kinase C beta type (P05771 whole entry): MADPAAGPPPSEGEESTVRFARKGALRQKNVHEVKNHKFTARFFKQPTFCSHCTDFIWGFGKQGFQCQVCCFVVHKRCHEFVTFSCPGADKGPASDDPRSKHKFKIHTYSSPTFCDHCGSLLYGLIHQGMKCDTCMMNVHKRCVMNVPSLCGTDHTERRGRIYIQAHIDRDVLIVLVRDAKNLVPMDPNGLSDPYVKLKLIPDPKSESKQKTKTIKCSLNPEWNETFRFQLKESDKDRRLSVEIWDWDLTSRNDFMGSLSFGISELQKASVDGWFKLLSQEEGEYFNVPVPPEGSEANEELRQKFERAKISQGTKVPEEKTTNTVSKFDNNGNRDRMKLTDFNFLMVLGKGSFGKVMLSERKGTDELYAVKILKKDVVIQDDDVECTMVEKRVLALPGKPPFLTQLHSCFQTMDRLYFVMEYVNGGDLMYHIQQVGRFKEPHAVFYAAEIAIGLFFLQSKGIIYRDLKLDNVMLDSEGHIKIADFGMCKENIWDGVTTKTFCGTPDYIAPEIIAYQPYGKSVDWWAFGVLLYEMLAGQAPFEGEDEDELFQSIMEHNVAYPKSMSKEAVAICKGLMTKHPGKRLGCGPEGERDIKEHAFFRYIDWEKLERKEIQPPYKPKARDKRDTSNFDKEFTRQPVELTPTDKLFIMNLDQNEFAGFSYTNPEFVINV
For assay [11], the target named is T2, Protein kinase C zeta type (Homo sapiens, UniProt Q05513).
T2 sequence (Q05513 whole entry): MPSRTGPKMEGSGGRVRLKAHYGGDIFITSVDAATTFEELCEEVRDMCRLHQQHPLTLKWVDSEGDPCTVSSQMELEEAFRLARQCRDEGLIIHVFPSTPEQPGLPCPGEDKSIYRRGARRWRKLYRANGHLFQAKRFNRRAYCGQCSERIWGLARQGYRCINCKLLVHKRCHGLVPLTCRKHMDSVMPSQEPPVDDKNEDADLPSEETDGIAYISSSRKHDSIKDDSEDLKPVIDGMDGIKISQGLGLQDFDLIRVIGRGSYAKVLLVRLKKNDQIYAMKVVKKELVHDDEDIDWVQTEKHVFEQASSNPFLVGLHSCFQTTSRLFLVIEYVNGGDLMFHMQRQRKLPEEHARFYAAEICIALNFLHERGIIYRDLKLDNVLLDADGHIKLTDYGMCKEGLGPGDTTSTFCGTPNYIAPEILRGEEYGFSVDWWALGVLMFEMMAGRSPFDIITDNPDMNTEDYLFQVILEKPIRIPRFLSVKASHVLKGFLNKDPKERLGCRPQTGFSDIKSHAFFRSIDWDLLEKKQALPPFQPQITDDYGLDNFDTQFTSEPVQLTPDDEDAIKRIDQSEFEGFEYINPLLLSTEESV
Kind of assay: Inhibition of protein kinase C zeta.

The target in assay [12] is Casein kinase I. The assay is described as follows: Inhibition of Casein kinase I. It counts as protein assay.
Assay [13] addresses T3, Serine/threonine-protein kinase D1 (Homo sapiens, UniProt Q15139).
T3 sequence (Q15139 whole entry): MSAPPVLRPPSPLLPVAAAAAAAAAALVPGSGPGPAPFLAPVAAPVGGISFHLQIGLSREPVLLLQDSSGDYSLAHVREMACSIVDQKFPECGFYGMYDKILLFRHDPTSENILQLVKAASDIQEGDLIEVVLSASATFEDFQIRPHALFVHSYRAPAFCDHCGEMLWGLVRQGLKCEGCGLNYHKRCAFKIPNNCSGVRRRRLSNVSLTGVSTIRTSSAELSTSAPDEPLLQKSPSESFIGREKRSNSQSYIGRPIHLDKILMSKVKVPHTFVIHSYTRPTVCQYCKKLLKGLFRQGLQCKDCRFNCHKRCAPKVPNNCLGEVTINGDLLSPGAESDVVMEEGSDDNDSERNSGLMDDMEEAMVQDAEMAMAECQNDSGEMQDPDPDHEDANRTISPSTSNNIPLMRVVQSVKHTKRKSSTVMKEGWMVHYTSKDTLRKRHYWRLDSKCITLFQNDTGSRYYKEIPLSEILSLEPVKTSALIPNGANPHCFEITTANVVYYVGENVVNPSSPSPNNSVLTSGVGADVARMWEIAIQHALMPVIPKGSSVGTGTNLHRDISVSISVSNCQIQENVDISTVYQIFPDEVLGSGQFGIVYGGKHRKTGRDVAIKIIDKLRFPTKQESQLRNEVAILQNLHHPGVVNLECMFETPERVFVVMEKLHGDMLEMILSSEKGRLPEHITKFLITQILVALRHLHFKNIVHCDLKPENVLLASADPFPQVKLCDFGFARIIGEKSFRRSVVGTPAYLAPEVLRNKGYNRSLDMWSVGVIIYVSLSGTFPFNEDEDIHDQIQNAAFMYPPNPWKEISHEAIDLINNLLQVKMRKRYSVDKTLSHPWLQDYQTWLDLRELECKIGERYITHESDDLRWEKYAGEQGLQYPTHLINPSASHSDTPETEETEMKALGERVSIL
Kind of assay: Inhibition of Protein kinase C mu.

Assay [14] in a line: Inhibition of cGMP-dependent protein kinase.
Assay [15] addresses Cyclin-dependent kinase 4/cyclin D1 (Homo sapiens, UniProt P11802). The assay is described as follows: Inhibition of Cyclin-dependent kinase 4-cyclin D1.
Assay [16] addresses RAF proto-oncogene serine/threonine-protein kinase (Homo sapiens, UniProt P04049). The assay is described as follows: Inhibition of RAF proto-oncogene serine/threonine-protein kinase (c-raf).
Assay [17] deals with Dual specificity mitogen-activated protein kinase kinase; MEK1/2 (Homo sapiens, UniProt P36507+Q02750). The assay is described as follows: Inhibition of Mitogen activated protein kinase kinase. It counts as protein assay.
Assay [18] concerns the target Casein kinase II (Homo sapiens, UniProt P19784+P67870+P68400). Kind of assay: Inhibition of Casein kinase II. It counts as protein-complex assay.

By IC50 is commonly meant the point on the concentration scale where inhibition reaches its midpoint.

Sequence of Cyclin-dependent kinase 4/cyclin D1 (P11802 whole entry): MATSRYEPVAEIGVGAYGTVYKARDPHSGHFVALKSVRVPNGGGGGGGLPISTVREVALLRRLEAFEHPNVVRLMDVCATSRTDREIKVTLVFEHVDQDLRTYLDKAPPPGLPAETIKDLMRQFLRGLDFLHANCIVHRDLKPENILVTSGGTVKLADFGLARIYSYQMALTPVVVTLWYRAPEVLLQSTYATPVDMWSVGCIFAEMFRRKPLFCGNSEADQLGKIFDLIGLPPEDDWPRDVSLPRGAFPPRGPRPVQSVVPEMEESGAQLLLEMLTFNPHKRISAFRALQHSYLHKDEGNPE
Sequence of Cyclin-dependent kinase 4/cyclin D1 (P24385 whole entry, further chain): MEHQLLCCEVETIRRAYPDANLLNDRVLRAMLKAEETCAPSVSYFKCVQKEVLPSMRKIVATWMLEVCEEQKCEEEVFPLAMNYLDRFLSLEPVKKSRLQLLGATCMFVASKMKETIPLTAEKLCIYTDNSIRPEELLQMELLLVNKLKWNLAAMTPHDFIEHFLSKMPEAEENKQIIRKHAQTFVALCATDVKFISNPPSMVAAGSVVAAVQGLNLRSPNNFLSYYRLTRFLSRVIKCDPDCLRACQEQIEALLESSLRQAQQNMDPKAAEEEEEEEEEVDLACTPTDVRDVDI
Sequence of Serine/threonine-protein kinase pim-1 (P11309 whole entry): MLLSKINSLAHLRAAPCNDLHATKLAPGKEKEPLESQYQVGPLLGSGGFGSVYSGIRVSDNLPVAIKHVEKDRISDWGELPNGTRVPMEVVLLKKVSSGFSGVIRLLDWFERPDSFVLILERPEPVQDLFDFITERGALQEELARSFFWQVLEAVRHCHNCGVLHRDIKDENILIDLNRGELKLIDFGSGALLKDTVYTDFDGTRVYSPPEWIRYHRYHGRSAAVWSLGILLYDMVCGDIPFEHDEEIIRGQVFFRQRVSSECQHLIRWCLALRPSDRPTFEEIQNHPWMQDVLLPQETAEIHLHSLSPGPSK
Sequence of RAF proto-oncogene serine/threonine-protein kinase (P04049 whole entry): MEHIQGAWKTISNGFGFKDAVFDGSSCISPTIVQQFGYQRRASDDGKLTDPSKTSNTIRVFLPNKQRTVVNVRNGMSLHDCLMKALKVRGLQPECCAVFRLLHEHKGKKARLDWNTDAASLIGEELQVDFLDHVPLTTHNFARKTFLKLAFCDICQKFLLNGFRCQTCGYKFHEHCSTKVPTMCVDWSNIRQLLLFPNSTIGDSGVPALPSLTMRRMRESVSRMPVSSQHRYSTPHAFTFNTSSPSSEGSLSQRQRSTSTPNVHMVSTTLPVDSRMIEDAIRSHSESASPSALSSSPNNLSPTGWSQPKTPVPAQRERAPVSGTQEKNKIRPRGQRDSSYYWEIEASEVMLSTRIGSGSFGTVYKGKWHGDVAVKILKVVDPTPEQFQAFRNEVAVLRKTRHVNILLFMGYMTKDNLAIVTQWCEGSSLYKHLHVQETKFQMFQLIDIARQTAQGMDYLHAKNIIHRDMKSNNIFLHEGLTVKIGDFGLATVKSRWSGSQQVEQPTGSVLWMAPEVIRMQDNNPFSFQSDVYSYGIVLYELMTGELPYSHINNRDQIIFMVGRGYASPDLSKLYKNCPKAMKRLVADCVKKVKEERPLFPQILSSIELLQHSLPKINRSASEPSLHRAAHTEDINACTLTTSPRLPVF
Sequence of Casein kinase II (P67870 whole entry): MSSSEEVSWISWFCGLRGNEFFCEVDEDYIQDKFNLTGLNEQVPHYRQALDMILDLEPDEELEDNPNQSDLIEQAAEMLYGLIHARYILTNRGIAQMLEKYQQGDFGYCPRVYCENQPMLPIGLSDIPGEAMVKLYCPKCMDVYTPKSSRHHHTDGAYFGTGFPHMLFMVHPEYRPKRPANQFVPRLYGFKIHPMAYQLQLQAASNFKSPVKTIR
Sequence of Casein kinase II (P68400 whole entry): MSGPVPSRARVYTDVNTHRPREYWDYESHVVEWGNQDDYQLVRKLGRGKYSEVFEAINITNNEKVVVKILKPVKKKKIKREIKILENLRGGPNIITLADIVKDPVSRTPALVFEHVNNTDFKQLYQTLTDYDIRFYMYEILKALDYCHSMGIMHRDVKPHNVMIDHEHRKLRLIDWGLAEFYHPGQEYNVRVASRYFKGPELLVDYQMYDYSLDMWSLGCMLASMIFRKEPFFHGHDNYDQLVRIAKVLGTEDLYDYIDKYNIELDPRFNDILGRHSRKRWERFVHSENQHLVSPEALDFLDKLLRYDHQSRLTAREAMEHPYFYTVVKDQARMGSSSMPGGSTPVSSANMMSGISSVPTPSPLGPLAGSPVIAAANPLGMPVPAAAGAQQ
Sequence of Casein kinase II (P19784 whole entry): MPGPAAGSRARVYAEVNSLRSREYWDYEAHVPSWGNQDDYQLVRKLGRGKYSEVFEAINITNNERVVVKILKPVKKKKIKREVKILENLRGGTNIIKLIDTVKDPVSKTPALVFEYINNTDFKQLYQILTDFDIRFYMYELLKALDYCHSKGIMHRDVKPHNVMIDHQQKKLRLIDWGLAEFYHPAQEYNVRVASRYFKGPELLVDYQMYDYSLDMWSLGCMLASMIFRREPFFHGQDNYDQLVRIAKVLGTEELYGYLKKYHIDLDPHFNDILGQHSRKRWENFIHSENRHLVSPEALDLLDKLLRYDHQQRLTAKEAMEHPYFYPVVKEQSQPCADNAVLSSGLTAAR

Take `CCCCc1c(-c2ccc(O)cc2)[nH]c2nccnc12` [ALOISINE A]: the IC50 in assay [1] is over 100 µM; in assay [2], over 100 µM; in assay [3] it was over 100 µM; in assay [4] it was 100 µM; in [5] it was 0.4 µM; in assay [6], over 100 µM. Further, the IC50 in assay [7] was 3.3 µM; in [8], over 10 µM; in [9], 0.12 µM; in [10] it was over 100 µM; in assay [11], over 100 µM; in [12] it was over 100 µM. The 50% inhibitory concentration (IC50) in [13] is over 100 µM; in [14], 100 µM; in assay [15], over 100 µM; in assay [16], over 100 µM; in assay [17], over 100 µM; in assay [18], over 100 µM.
